# Source: a melting point compilation (Tetko et al.)
row,SMILES,melting point [°C]
1,CCN(C)S(=O)(=O)c1c(C)n[nH]c1C,61 to 63
2,CC1(c2cccc3ccccc23)NC(=O)NC1=O (centres undefined),105 to 107
3,COc1ccccc1Cn1cnc2cc(C)c(C)cc21,126 to 128
4,CNCC(=O)Nc1ccc(Cl)cc1,58 to 60
5,CCS(=O)(=O)NCC(=O)O,85 to 87
6,NS(=O)(=O)c1c[nH]cn1,232 to 234
7,COc1ccc(CNc2ccncc2)cc1,126 to 128
8,O=C(O)c1csc(Cc2ccc(F)cc2)n1,149 to 151
9,COC(=O)C1CCc2[nH]ncc2C1 (centres undefined),79 to 81
10,CC(C)(C)NC(=O)NC(=O)CCl,109 to 112
11,NCc1ccc(NC(=O)C(F)(F)F)cc1,106 to 108
12,Cn1ccnc1C(N)=S,134 to 136
13,CC(C)(C)C=CC(=O)O,60 to 62
14,Nc1cc(C(F)(F)F)ccc1C(=O)O,175 to 176
15,CCOC(=O)c1c(N)sc2c1CCN(CC)C2,83 to 87
16,Cc1c(N)cccc1C(N)=O,173 to 175
17,O=C(O)c1ccc2[nH]nnc2n1,277 to 279
18,CN1C(=O)/C(=N\NC(=O)c2cccnc2)c2ccccc21,195 to 197
19,CC(C)C(N)c1nnc2ccccn12 (centres undefined),116 to 118
20,CC(Br)c1ccc([N+](=O)[O-])cc1 (centres undefined),33 to 35
21,Nc1ccc(-n2cncn2)nc1,188 to 190
22,Cc1ccc(S(=O)(=O)C2(C(=O)O)CCC2)cc1,105 to 107
23,CC(C)Cn1c(N)c(C(=O)CCl)c(=O)n(C)c1=O,104 to 106
24,CC(C)c1noc2nc(C3CC3)cc(C(=O)O)c12,178 to 180
25,CCOC(=O)c1cnccn1,48 to 50

row,SMILES,melting point [°C]
1,C=CCOc1ccc(C(F)(F)F)cc1C(=O)O,58 to 60
2,CCN(CC)C(=O)c1cccc(O)c1,80 to 82
3,CC(C)CNC(=O)N1CCCC(C(=O)O)C1 (centres undefined),106 to 108
4,COc1nc2ccccc2cc1/C=C/C(=O)O,219 to 221
5,ClCc1cn(-c2ccccc2)nc1-c1ccccc1,87 to 89
6,O=C(O)c1ccc(OCC(F)(F)F)nn1,143 to 145
7,N#Cc1ccc(NC(=O)C(=O)O)cc1Cl,203 to 205
8,O=C(O)CCNC(=O)c1cccs1,220 to 222
9,ClCc1cc2c(cc1Cl)OCCCO2,55 to 57
10,O=C(O)c1cc(N2CCNC2=O)ccc1F,319 to 321
11,O=C(O)CCCOc1cccc(Cl)c1Cl,121 to 123
12,CCOc1ccc(C(N)=S)cc1,115 to 117
13,O=C(O)c1csc(C(=O)CCl)c1,147 to 149
14,CS(=O)(=O)C1CCCCC1=O (centres undefined),69 to 71
15,O=C(CCl)ONc1nc2ccccc2[nH]c1=O,187 to 189
16,O=C(O)C1CC(=O)N(C2CCCCCC2)C1 (centres undefined),165 to 167
17,Cc1nn(Cc2cccc(Br)c2)c(C)c1C(=O)O,174 to 176
18,Cc1ccc(-n2nc(N)cc2C)cc1,99 to 101
19,Brc1ccc(-c2nccs2)cc1,45 to 47
20,CC(C)(C(=O)O)c1cccc(C#N)c1,91 to 93
21,COc1cccc(-c2nn(-c3ccccc3)cc2C(=O)O)c1,156 to 158
22,Cc1cc(OCC(=O)O)ccc1C(C)C,117 to 121
23,O=C1CCc2cc(F)c([N+](=O)[O-])cc2N1,154 to 156
24,COc1sc(C=O)cc1Br,115 to 117
25,O=C(O)COc1ccc(C(=O)c2ccccc2)cc1,152 to 156

row,SMILES,melting point [°C]
1,CN(C)S(=O)(=O)c1c[nH]c(C(=O)O)c1,197 to 199
2,CCOc1cccc(C=CC(=O)O)c1OC1CCCC1,133 to 135
3,NC(=NO)C1CCCCC1,89 to 91
4,O=C1CCCc2[nH]c(=O)c(C(=O)O)cc21,289 to 291
5,N#Cc1cc2c([nH]c1=O)CCN(CCc1ccccc1)C2,219 to 221
6,CCOC(=O)c1sc2ccsc2c1CBr,98 to 100
7,Cc1nc(N)sc1Cc1cccc(Cl)c1,74 to 76
8,Clc1ccnc2ccc(Br)cc12,111 to 113
9,O=c1ccn2ncnc2[nH]1,282 to 284
10,O=C1CC(c2ccccc2)=NN1c1ccccc1Br,183 to 185
11,Brc1cnn(-c2ccncc2)c1,125 to 127
12,O=C(O)CCCNCc1ccccn1,69 to 71
13,CC(=O)c1ccc(SCC(=O)O)c(F)c1,140 to 142
14,O=C(O)c1cc(-c2ccncc2)nc2ccccc12,308 to 310
15,O=C(CCl)Nc1ccncc1,295 to 297
16,Cc1ccc(-c2nc(CCl)cs2)o1,71 to 73
17,O=C(O)c1cc2c([nH]c1=O)CCC2,273 to 275
18,NNc1cc(C(F)(F)F)nc2ncnn12,230 to 232
19,Cc1ccc(N)cc1NC(=O)c1ccncc1,201 to 203
20,CC(=O)c1cc(Br)sc1C,41 to 43
21,CC(C)(C)NC(=O)CCl,75 to 77
22,CN1CCOC(C(=O)c2ccc(Cl)cc2)C1 (centres undefined),59 to 61
23,N#Cc1ccc(S(=O)(=O)NCC2CCCO2)cc1 (centres undefined),123 to 125

# Other lines, results leading:
row,melting point [°C],SMILES
1,151 to 153,O=C1OC(C(=O)O)Cc2ccccc21 (centres undefined)
2,154 to 156,CC(=O)Oc1ccc(C)cc1C(=O)O
3,63 to 65,Nc1ccc(OCCO)nc1
4,194 to 196,Cc1cc(S(=O)(=O)Cl)sc1C(=O)O
5,59 to 61,O=S(=O)(Cl)c1ccc(OCCBr)cc1
6,188 to 190,Nc1c(-c2cccs2)nc2ccccn12
7,156 to 158,Nc1cncnc1N1CCCC1
8,96 to 98,CC(=O)NCCCc1ccc(C(=O)CCl)cc1
9,178 to 180,O=C(O)c1ccccc1SCc1cccs1
10,144 to 146,Cc1ccc(C2(C)NC(=O)NC2=O)c(C)c1 (centres undefined)
11,128 to 130,CC1=NN(Cc2ccc(Cl)cc2Cl)C(=O)C1
12,135 to 137,Cc1cn(-c2cccnc2)nc1N
13,93 to 95,Cc1ccccc1C(C)(C)C(=O)O
14,40 to 42,CC(C)Nc1cccnc1
15,153 to 155,NS(=O)(=O)Cc1c(F)cccc1F
16,249 to 251,Cc1cc(N2CCCS2(=O)=O)ccc1C(=O)O
17,79 to 81,O=C(CO)Nc1ccccc1
18,175 to 177,CCOC(=O)/C=C1/SCC(=O)N1Cc1cc(C(C)=O)ccc1OCC
19,52 to 54,CCOc1cc(C=O)cc(Br)c1OC
20,45 to 73,ClCc1nnnn1-c1ccccc1
21,219 to 221,Nc1c(C(=O)O)cc(F)cc1[N+](=O)[O-]
22,269 to 271,Oc1nnc2c(Cl)cccn12
23,83 to 85,ClCc1ncn(-c2ccccc2)n1
24,155 to 157,Nc1nnc(C(F)(F)F)[nH]1
25,164 to 166,CCC1(C(C)C)NC(=O)NC1=O (centres undefined)
26,189 to 191,CN(C(=O)C(C)(C)C)c1ccc(O)cc1

row,melting point [°C],SMILES
1,282 to 284,Cc1cc(C)c2ncc(C(=O)O)c(O)c2c1
2,49 to 51,CCC(C)c1csc(NC)n1 (centres undefined)
3,147 to 149,NC(CC(=O)N1CCOCC1)=NO
4,189 to 191,CSc1cc(C(=O)O)ccc1F
5,227 to 229,O=C(O)c1ccc(NC(=O)c2cccs2)cc1
6,300 to 302,Nc1cc(=O)[nH]c(S)n1
7,240 to 242,O=C(Nc1ccsc1C(=O)O)c1ccc(Br)cc1
8,116 to 118,Cc1ccc(C(=O)C(Br)CC(=O)O)cc1 (centres undefined)
9,50 to 52,CC(=O)c1cc([N+](=O)[O-])ccc1C
10,231 to 233,CN1CCN(S(=O)(=O)c2ccc(N)cc2)CC1
11,61 to 63,O=C(O)C=C1CCCC1
12,150 to 152,O=C(O)c1ccc(-c2ccccc2OC(F)(F)F)cc1F
13,71 to 73,Cn1ccc2c1C(=O)NCC2
14,118 to 120,Cc1cccc2nc(C(F)(F)F)[nH]c(=O)c12
15,144 to 146,CN(C(=O)c1ccccc1C(=O)O)C1CCCCC1
16,157 to 159,CC(Sc1nncn1C)C(=O)O (centres undefined)
17,115 to 117,Cc1cccc(-n2nnnc2S)c1C
18,138 to 140,CC(N)c1cc(F)ccc1N1CCC(O)CC1 (centres undefined)
19,158 to 160,Cn1c(S)nnc1Cc1ccccc1
20,273 to 275,NC1(c2nc(C(=O)O)c[nH]2)CCC1
21,159 to 161,O=C(O)c1cc(-c2ccco2)nn1-c1ccccc1
22,194 to 196,Cn1c(S)nnc1N1CCOCC1
23,119 to 121,Sc1nc2c(s1)CCCC2
24,152 to 154,CCCCN1C(=O)c2ccc(C(=O)O)cc2C1=O
25,121 to 123,CCC(=O)NCC(=O)O
26,152 to 154,O=C(O)CC(O)(c1nccn1Cc1ccccc1)C(F)(F)F (centres undefined)

row,melting point [°C],SMILES
1,139 to 141,O=C(O)c1nnc2c(C(F)(F)F)cccn12
2,202 to 204,CC(=O)Nc1c(C)n[nH]c1C
3,232 to 234,Cc1c[nH]c(=O)n1-c1cccc(N)c1
4,181 to 183,Oc1cccc(-n2cncn2)c1
5,222 to 224,NS(=O)(=O)c1cccc2cnccc12
6,303 to 305,COc1ccc(CCC(C)(N)C(=O)O)cc1 (centres undefined)
7,155 to 157,O=C(O)CCC(=O)N1CCN(S(=O)(=O)c2ccccc2)CC1
8,249 to 251,Cc1cnc2c(c1)NC(=O)CN2
9,135 to 137,Cc1nc(N)c(I)cc1Br
10,239 to 241,Sc1nnc(-c2cccs2)[nH]1
11,81 to 83,O=C(O)C=CC1CCC=CO1 (centres undefined)
12,108 to 110,O=C1C(Br)CCCN1c1ccccc1Cl (centres undefined)
13,150 to 152,Cc1nc(-c2ccc(N)cc2)oc1C
14,316 to 318,Cn1c(=O)c2c(=O)cc(N)[nH]c2n(C)c1=O
15,94 to 96,Cc1ccccc1-n1c(S)nnc1-c1cccnc1
16,62 to 64,COCc1nc(Cl)c2c(-c3ccccc3)csc2n1
17,103 to 105,Cc1nc[nH]c1C
18,186 to 188,CC(O)c1ccc(N2CCNC(=O)C2)cc1Cl (centres undefined)
19,194 to 196,O=C(O)C(c1ccccc1)N1C(=O)CCC1=O (centres undefined)
20,42 to 44,COCC(C)C(N)=S (centres undefined)
21,94 to 96,CC(C)(C)c1ccc(OCCC(=O)O)cc1
22,128 to 130,CC(CC(N)=S)n1cc(Cl)cn1 (centres undefined)
23,104 to 106,CC(=O)N(CCC(N)=S)C(C)C
24,234 to 236,O=C(O)C1CCc2cn[nH]c2C1 (centres undefined)
